Results: US11229633B2, “Arimoclomol formulation” (Orphazyme A/S, priority 2014, dated 2022)
Where “and” joins values, the source holds several entries; their conditions need not be identical. Equal values may be shown once. Entries after “also recorded” stand apart in the source; their conditions may differ.

How the values were obtained:
human OCT2 = target: T1, human OCT2 (Homo sapiens, UniProt O15244); assay: Uptake transporter inhibition assay, OCT2; assay type: in vitro ADME
T1 construct: expressed in transfected cells; host or cells: CHO (protocol UPT-CHO-OCT2-Metf; control: parental CHO-K1)
T1 sequence (O15244 1-555): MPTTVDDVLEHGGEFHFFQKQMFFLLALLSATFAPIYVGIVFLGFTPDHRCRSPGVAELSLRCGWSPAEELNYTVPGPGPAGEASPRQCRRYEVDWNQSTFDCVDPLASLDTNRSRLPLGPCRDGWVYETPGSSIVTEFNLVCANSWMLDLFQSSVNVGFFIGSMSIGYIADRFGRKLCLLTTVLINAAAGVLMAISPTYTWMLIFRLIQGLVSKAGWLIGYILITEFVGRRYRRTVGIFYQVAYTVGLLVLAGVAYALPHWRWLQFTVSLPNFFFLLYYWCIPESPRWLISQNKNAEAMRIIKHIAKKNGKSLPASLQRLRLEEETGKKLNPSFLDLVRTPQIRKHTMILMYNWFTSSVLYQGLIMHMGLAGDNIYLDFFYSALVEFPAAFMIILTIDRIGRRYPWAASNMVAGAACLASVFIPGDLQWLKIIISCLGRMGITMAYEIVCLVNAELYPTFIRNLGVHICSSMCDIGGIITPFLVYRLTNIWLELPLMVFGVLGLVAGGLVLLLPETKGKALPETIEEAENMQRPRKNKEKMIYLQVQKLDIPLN
Protocol: (§1) Uptake experiments were performed using CHO, MDCKII, or HEK293 cells stably expressing the respective uptake transporters.
(§2) Cells were cultured at 37±1° C. in an atmosphere of 95:5 air:CO2 and were plated onto standard 96-well tissue culture plates at the cell number described in table 4.
(§3) Before the experiment, the medium was removed and the cells were washed twice with 100 μl of HK buffer at pH 7.4 (prepared from Sigma chemicals, Sigma-Aldrich, St Louis, Mo.). Uptake experiments were carried out at 37±1° C. in 50 μl of HK buffer (pH 7.4) containing the probe substrate and the TA or vehicle control (water).
(§4) After the experiment, cells were washed twice with ice cold, 100 μl of HK buffer and lysed with 50 μl of 0.1 M NaOH (1 mM CaCl2) in 5% SDS in the case of OATP1B3). Fluo-3 transport (OATP1B3) was determined by measuring fluorescence using 485 nm and 520 nm as the excitation and emission wavelengths, respectively. Radiolabelled probe substrate transport was determined by measuring an aliquot (35 μl) from each well for liquid scintillation counting.
Uptake of the probe substrate in control cells provided background activity values for all data points. […]
The amount of translocated probe substrate was determined for each well in cpm or RFU. Relative activities were calculated from the equation: […]
(§5) In uptake transporter inhibition assays, the IC50 (μM) was calculated, where applicable. […]

human OAT3 = target: T2, human OAT3 (Homo sapiens, UniProt Q8TCC7); assay: Uptake transporter inhibition assay, OAT3; assay type: in vitro ADME; set-up: key to maximum inhibition: NIO: No interaction observed; details: for maximum inhibition: 0.3-300 μM
T2 construct: expressed in transfected cells; host or cells: MDCKII (protocol UPT-MDCKII-OAT3-E3S; control: parental MDCKII)
T2 sequence (Q8TCC7 1-542): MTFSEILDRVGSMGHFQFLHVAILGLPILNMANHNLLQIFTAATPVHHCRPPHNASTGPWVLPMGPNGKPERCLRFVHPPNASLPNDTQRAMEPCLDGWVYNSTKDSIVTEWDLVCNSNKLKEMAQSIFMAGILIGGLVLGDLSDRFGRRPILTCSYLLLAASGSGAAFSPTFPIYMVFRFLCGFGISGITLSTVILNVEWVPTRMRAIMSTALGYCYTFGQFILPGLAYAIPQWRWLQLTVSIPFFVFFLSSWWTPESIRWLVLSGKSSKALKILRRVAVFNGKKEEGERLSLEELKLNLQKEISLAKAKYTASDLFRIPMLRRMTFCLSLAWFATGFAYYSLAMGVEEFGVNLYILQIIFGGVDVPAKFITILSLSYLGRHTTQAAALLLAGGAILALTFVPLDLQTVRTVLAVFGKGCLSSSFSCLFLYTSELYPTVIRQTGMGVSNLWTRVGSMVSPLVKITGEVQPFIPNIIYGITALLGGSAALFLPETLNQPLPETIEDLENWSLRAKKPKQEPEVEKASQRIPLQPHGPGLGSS
Protocol: as §1, §2, §3, §4
Uptake of the probe substrate in control cells provided background activity values for all data points. Incubation without TA or reference inhibitor (solvent only) provided 100% activity values. A reference inhibitor served as positive control for inhibition.
The amount of translocated probe substrate was determined for each well in cpm or RFU. Relative activities were calculated from the equation:
[formula] A: amount of translocated substrate in the presence of TA in transfected cells B: amount of translocated substrate in the presence of TA in control cells C: amount of translocated substrate in the presence of solvent in transfected cells D: amount of translocated substrate in the presence of solvent in control cells Calculation of Fold Accumulation Values
as §5

[1] = Stability at conventional extrusion temperature; assay type: physicochemical; details: 100-200° C.

In the case of `[O-][n+]1cccc(C(Cl)=NOCC(O)CN2CCCCC2)c1` (stereo not drawn) [Arimoclomol, N-[2-hydroxy-3-(1-piperidinyl)-propoxy]-pyridine-1-oxide-3-carboximidoyl chloride], the “Inhibitor of the OCT2 transporter (in words)” value (human OCT2) is reported as “inhibitor”, the IC50 (human OCT2; OCT2-mediated metformin (10 μM) uptake, CHO cells) is reported as 10 µM and 9.72 µM and the maximum inhibition (human OAT3; Table 2) is reported as “NIO”. The maximum inhibition (human OAT3; Table 5) was “NIO”, the “Influence on OAT3-mediated probe substrate accumulation (in words)” value (human OAT3; applied concentrations) was “did not influence; also recorded: not an inhibitor” and the “Stability at conventional extrusion temperature” value [1] was “not stable”.
